Experimental data: patent US10155765B2, “Carboxamide inhibitors of IRAK4 activity” (MERCK SHARP & DOHME CORP., priority 2015, dated 2018)
Structures can show the parent of a compound that is named as a salt.

Biological target: IRAK4 (Homo sapiens (Human), UniProt Q9NWZ3)
Assay: IRAK4 Kinase Assay (IMAP fluorescence polarization)
Type: biochemical
Settings: GST tagged IRAK4, 100 μM ATP, 30 minutes at 25° C., IMAP FP
Description: Other assays are known in the literature and could be readily performed by those of skill in the art.
The reaction is initiated by the addition of ATP.

Sequence of IRAK4 (Q9NWZ3 whole entry): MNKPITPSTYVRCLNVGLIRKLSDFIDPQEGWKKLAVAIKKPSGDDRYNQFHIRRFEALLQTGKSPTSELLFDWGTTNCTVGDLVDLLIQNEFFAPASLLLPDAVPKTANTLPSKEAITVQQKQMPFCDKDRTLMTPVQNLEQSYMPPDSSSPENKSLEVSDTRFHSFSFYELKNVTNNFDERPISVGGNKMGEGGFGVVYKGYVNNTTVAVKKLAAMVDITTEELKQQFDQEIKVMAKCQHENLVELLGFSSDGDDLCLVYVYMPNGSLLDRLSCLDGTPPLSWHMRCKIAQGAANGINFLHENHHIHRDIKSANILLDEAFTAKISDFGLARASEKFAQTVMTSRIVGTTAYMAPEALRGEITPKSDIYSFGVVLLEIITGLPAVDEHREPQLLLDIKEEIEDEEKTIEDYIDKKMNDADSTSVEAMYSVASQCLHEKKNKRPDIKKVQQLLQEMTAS

SMILES | IC50 [nM]
NC(=O)c1sccc1NC(=O)c1cnn2cccnc12 [Example 50, N-(2-carbamoylthiophen-3-yl)pyrazolo[1,5-a]pyrimidine-3-carboxamide hydrochloride] | 3500
NC(=O)c1cc(S(N)(=O)=O)c(Cl)cc1NC(=O)c1cnn2cccnc12 [Example 54, N-(2-carbamoyl-5-chloro-4-sulfamoylphenyl)pyrazolo[1,5-a]pyrimidine-3-carboxamide trifluoroacetate] | 310
CS(=O)(=O)N1CCCC(n2cc(NC(=O)c3cnn4ccc(N[C@H]5CCCC[C@H]5N)nc34)c(C(N)=O)n2)C1 (relative stereo) [Example 20, 5-{[cis-2-aminocyclohexyl]amino}-N-{3-carbamoyl-1-[1-(methylsulfonyl)piperidin-3-yl]-1H-pyrazol-4-yl}pyrazolo[1,5-a]pyrimidine-3-carboxamide trifluoroacetate] | 4
Cn1cc(NC(=O)c2ccc3cnc(N[C@@H]4CCCC[C@@H]4N)nn23)c(C(N)=O)n1 [Example 61, 2-{[(1R,2S)-2-aminocyclohexyl]amino}-N-(3-carbamoyl-1-methyl-1H-pyrazol-4-yl)pyrrolo[2,1-f][1,2,41triazine-7-carboxamide trifluoroacetate] | 0.7
CNC(=O)c1nn(CCO)cc1NC(=O)c1ccc2cnc(N[C@@H]3CCCC[C@@H]3N)nn12 [Example 65, 2-{[(1R,2S)-2-aminocyclohexyl]amino}-N-[1-(2-hydroxyethyl)-3-(methylcarbamoyl)-1H-pyrazol-4-yl]pyrrolo[2,1-f][1,2,4]triazine-7-carboxamide trifluoroacetate] | 63
NC(=O)c1nn(CCO)cc1NC(=O)c1ccc2cnc(N[C@@H]3CCCC[C@@H]3N)nn12 [Example 63, 2-{[(1R,2S)-2-aminocyclohexyl]amino}-N-[3-carbamoyl-1-(2-hydroxyethyl)-1H-pyrazol-4-yl]pyrrolo[2,1-f][1,2,4]triazine-7-carboxamide trifluoroacetate] | 3
NCCNc1ccn2ncc(C(=O)Nc3cn(-c4cccnc4)nc3C(N)=O)c2n1 [Example 11, 5-[(2-aminoethyl)amino]-N-(3-carbamoyl-1-pyridin-3-yl-1H-pyrazol-4-yl)pyrazolo[1,5-a]pyrimidine-3-carboxamide] | 0.7
CNC(=O)c1nn(C)cc1NC(=O)c1ccc2cnc(N[C@@H]3CCCC[C@@H]3N)nn12 [Example 64, 2-{[(1R,2S)-2-aminocyclohexyl]amino}-N-[1-methyl-3-(methylcarbamoyl)-1H-pyrazol-4-yl]pyrrolo[2,1-f][1,2,4]triazine-7-carboxamide trifluoroacetate] | 13
Cn1cc(NC(=O)c2ccc3cnc(NCCN)nn23)c(C(N)=O)n1 [Example 58, 2-[(2-Aminoethyl)amino]-N-(3-carbamoyl-1-methyl-1H-pyrazol-4-yl)pyrrolo[2,1-f][1,2,4]triazine-7-carboxamide] | 0.9
CC(C)n1cc(NC(=O)c2cnn3ccc(N[C@@H]4CCCC[C@@H]4N)nc23)c(C(N)=O)n1 [Example 22, 5-{[(1R,2S)-2-aminocyclohexyl]amino}-N-[3-carbamoyl-1-(1-methylethyl)-1H-pyrazol-4-yl]pyrazolo[1,5-a]pyrimidine-3-carboxamide trifluoroacetate] | 1
CN(C)C(=O)c1nn(C)cc1NC(=O)c1cnn2ccc(N[C@H]3CCCC[C@H]3N)nc12 (relative stereo) [Example 17, 5-{[cis-2-aminocyclohexyl]amino}-N-[3-(dimethylcarbamoyl)-1-methyl-1H-pyrazol-4-yl]pyrazolo[1,5-a]pyrimidine-3-carboxamide trifluoroacetate] | 150
CC(C)(C)c1cc(NC(=O)c2cnn3cccnc23)c(C(N)=O)s1 [Example 51, N-(5-tert-butyl-2-carbamoylthiophen-3-yl)pyrazolo[1,5-a]pyrimidine-3-carboxamide hydrochloride] | 8500
COCCn1cc(NC(=O)c2ccc3cnc(N[C@@H]4CCCC[C@@H]4N)nn23)c(C(N)=O)n1 [Example 66, 2-{[(1R,2S)-2-aminocyclohexyl]amino}-N-[3-carbamoyl-1-(2-methoxyethyl)-1H-pyrazol-4-yl]pyrrolo[2,1-f][1,2,4]triazine-7-carboxamide trifluoroacetate] | 6
CNC(=O)c1nn(C)cc1NC(=O)c1ccc2cnc(NCCN)nn12 [Example 60, 2-[(2-aminoethyl)amino]-N-[1-methyl-3-(methylcarbamoyl)-1H-pyrazol-4-yl]pyrrolo[2,1-f][1,2,4]triazine-7-carboxamide trifluoroacetate] | 3

Results, then the compound that gave them:

IC50 [nM] | SMILES
5 | Cn1cc(NC(=O)c2cnn3ccc(N[C@H]4CCS(=O)(=O)C[C@H]4N)nc23)c(C(N)=O)n1 (relative stereo) [Example 4, 5-{[cis-3-amino-1,1-dioxidotetrahydro-2H-thiopyran-4-yl]amino}-N-(3-carbamoyl-1-methyl-1H-pyrazol-4-yl)pyrazolo[1,5-a]pyrimidine-3-carboxamide trifluoroacetate]
400 | Cn1cc(NC(=O)c2cnn3ccc(N4CCNC(=O)C4)nc23)c(C(N)=O)n1 [Example 38, N-(3-Carbamoyl-1-methyl-1H-pyrazol-4-yl)-5-(3-oxopiperazin-1-yl)pyrazolo[1,5-a]pyrimidine-3-carboxamide]
470 | NC(=O)c1nn(C2CCNCC2)cc1NC(=O)c1cnn2cccnc12 [Example 47, N-(3-carbamoyl-1-piperidin-4-yl-1H-pyrazol-4-yl)pyrazolo[1,5-a]pyrimidine-3-carboxamide hydrochloride]
15 | Cn1cc(NC(=O)c2cnn3ccc(N[C@H]4CS(=O)(=O)CC[C@H]4N)nc23)c(C(N)=O)n1 (relative stereo) [Example 5, 5-{[cis-4-amino-1,1-dioxidotetrahydro-2H-thiopyran-3-yl]amino}-N-(3-carbamoyl-1-methyl-1H-pyrazol-4-yl)pyrazolo[1,5-a]pyrimidine-3-carboxamide trifluoroacetate]
1000 | NC(=O)c1nn(-c2ccccn2)cc1NC(=O)c1cnn2ccc(N3CCNCC3)nc12 [Example 37, N-(3-Carbamoyl-1-pyridin-2-yl-1H-pyrazol-4-yl)-5-piperazin-1-ylpyrazolo[1,5-a]pyrimidine-3-carboxamide]
18 | CNC(=O)c1nn(C)cc1NC(=O)c1cnn2ccc(N[C@H]3CCCC[C@H]3N)nc12 (relative stereo) [Example 16, 5-{[cis-2-aminocyclohexyl]amino}-N-[1-methyl-3-(methylcarbamoyl)-1H-pyrazol-4-yl]pyrazolo[1,5-a]pyrimidine-3-carboxamide trifluoroacetate]
32 | Cn1cc(NC(=O)c2cnn3ccc(N[C@@H]4CCCC(F)(F)[C@@H]4N)nc23)c(C(N)=O)n1 [Example 3, 5-{[(1R,2R)-2-amino-3,3-difluorocyclohexyl]amino}-N-(3-carbamoyl-1-methyl-1H-pyrazol-4-yl)pyrazolo[1,5-a]pyrimidine-3-carboxamide trifluoroacetate]
37 | Cn1cc(NC(=O)c2cnn3ccc(N4CCNCC4)nc23)c(C(N)=O)n1 [Example 31, N-(3-carbamoyl-1-methyl-1H-pyrazol-4-yl)-5-piperazin-1-ylpyrazolo[1,5-a]pyrimidine-3-carboxamide hydrochloride]
